Measurements from article PMC7412250, “Novel Chrysin-De-Allyl PAC-1 Hybrid Analogues as Anticancer Compounds: Design, Synthesis, and Biological Evaluation” (Molecules, 2020).
Like-named read-outs stand apart in the source and are kept apart here.

How the values were obtained:
MDA-MB-231 cells [1] = test: MTT cytotoxicity assay, MDA-MB-231; assay type: cell-based, human; conditions: MDA-MB-231, MTT; for IC50: Homo sapiens, mean ± SD of two independent experiments in triplicate, read-out: IC50 (cell survival)
Description: The synthesized chrysin derivatives were evaluated for cytotoxic efficacy in the human breast cancer cell line, MDA-MB-231, using the 3-(4,5-dimethylthiazol-2yl)-2,5-diphenyltetrazolium bromide (MTT) colorimetric assay and doxorubicin was used as a reference anticancer drug.
(§1) A panel of cancer cell lines, including breast (MDA-MB-231, BT20), brain (U251), and colon (HCT116), as well as a normal cell line (human mammary epithelial cells: HMECs), were grown as adherent monolayers in flasks with Dulbecco’s Modified Eagle Medium (DMEM), supplemented with 10% fetal bovine serum (FBS) and 1% penicillin and streptomycin in a humidified incubator with 5% CO2 at 37 °C.
The (3-(4,5-dimethylthiazol-2-yl)-2,5-diphenyltetrazolium bromide) (MTT) assay was used to determine the cytotoxicity of the 15 chrysin derivatives in the above-mentioned cell lines. Briefly, cells were harvested with 0.05% trypsin, 2.21 mM ethylenediaminetetraacetic acid (EDTA), 1× from Corning (Corning, NY, USA), and suspended at a final density of 5 × 10^3 cells/well. Cells were seeded (180 μL/well) into 96-well plates. Initially, four different concentrations of each compound were added to find the compounds with the greatest antiproliferative efficacy in the MDA-MB-231 cell line (0, 1, 10, and 100 μM). Subsequently, […] different concentrations […] of each compound were added to the remaining cell lines mentioned above. After 68 h of incubation, 20 μL of the MTT solution (4 mg/mL) were added to each well, and the plates were incubated for 4 h. This allowed viable cells to biotransform the yellow-colored MTT into dark-blue formazan crystals. Subsequently, the medium was discarded, and 150 μL of DMSO were added to each well to dissolve the formazan crystals. The absorbance was determined at 590 nm using a DTX 880 multimode detector (Beckman Coulter life sciences, IN, USA). […] The IC50 values were calculated from the cell survival percentages obtained for each compound tested at different concentrations. Similarly, the cytotoxicity of the test compounds was compared to the normal cell line (HMEC).

HCT116 = test: MTT cytotoxicity assay, HCT116; assay type: cell-based; conditions: Homo sapiens, HCT-116, mean ± SEM of three independent experiments in triplicate, read-out: IC50 Colon Cancer HCT116
Description: as §1
(§2) The (3-(4,5-dimethylthiazol-2-yl)-2,5-diphenyltetrazolium bromide) (MTT) assay was used to determine the cytotoxicity of the 15 chrysin derivatives in the above-mentioned cell lines. Briefly, cells were harvested with 0.05% trypsin, 2.21 mM ethylenediaminetetraacetic acid (EDTA), 1× from Corning (Corning, NY, USA), and suspended at a final density of 5 × 10^3 cells/well. Cells were seeded (180 μL/well) into 96-well plates. Initially, four different concentrations of each compound were added to find the compounds with the greatest antiproliferative efficacy in the MDA-MB-231 cell line (0, 1, 10, and 100 μM). Subsequently, […] different concentrations […] of each compound were added to the remaining cell lines mentioned above. After 68 h of incubation, 20 μL of the MTT solution (4 mg/mL) were added to each well, and the plates were incubated for 4 h. This allowed viable cells to biotransform the yellow-colored MTT into dark-blue formazan crystals. Subsequently, the medium was discarded, and 150 μL of DMSO were added to each well to dissolve the formazan crystals. The absorbance was determined at 590 nm using a DTX 880 multimode detector (Beckman Coulter life sciences, IN, USA). The IC50 ± SD concentrations were calculated from three experiments performed in triplicate/duplicate. The IC50 values were calculated from the cell survival percentages obtained for each compound tested at different concentrations. Similarly, the cytotoxicity of the test compounds was compared to the normal cell line (HMEC).

BT-20 = test: MTT cytotoxicity assay, BT-20; assay type: cell-based; conditions: Homo sapiens, mean ± SEM of three independent experiments in triplicate, read-out: IC50 Breast Cancer BT-20
Description: as §1, §2

[2] = test system: HMEC (human mammary epithelial cells); test: MTT cytotoxicity assay, normal cells HMEC; assay type: cell-based; conditions: mean ± SEM of three independent experiments in triplicate
Description: as §1, §2

U-251 = test: MTT cytotoxicity assay, U-251; assay type: cell-based; conditions: Homo sapiens, mean ± SEM of three independent experiments in triplicate, read-out: IC50 Brain Cancer U-251
Description: as §1, §2

MDA-MB-231 cells [3] = test system: MDA-MB-231 cells; parameters: method as in PMID 30774307; conditions: cited from earlier work; for IC50: MDA-MB-231, MTT, data taken from ref 29, read-out: IC50 (cell survival)

Structure (SMILES) | IC50 (MDA-MB-231 cells [1]) | cytotoxic efficacy (in words) (MDA-MB-231 cells [1]) | further results
O=C(COc1cc(O)c2c(=O)cc(-c3ccccc3)oc2c1)N/N=C/c1ccccc1O [Compound 4a, (E,Z)-2-((5-Hydroxy-4-oxo-2-phenyl-4H-chromen-7-yl)oxy)-N’-(2-hydroxybenzylidene)acetohydrazide] | 6.8 ± 2.76 µM |  | IC50 (HCT116): 2.88 ± 0.09 µM; IC50 (BT-20): 4.41 ± 0.99 µM; IC50 [2]: 7.12 ± 4.55 µM; IC50 (U-251): 8.63 ± 4.86 µM
O=C(COc1cc(O)c2c(=O)cc(-c3ccccc3)oc2c1)N/N=C/c1ccccc1 [Compound 4b, (E,Z)-N’-Benzylidene-2-((5-hydroxy-4-oxo-2-phenyl-4H-chromen-7-yl)oxy)acetohydrazide] | 9.4 ± 3.38 µM |  | 
COc1ccccc1/C=N/NC(=O)COc1cc(O)c2c(=O)cc(-c3ccccc3)oc2c1 [Compound 4c, (E,Z)-2-((5-Hydroxy-4-oxo-2-phenyl-4H-chromen-7-yl)oxy)-N’-(2-methoxybenzylidene)acetohydrazide] | 23.3 ± 6.98 µM |  | 
O=C(COc1cc(O)c2c(=O)cc(-c3ccccc3)oc2c1)N/N=C/c1ccc(O)cc1 [Compound 4e, (E,Z)-2-((5-Hydroxy-4-oxo-2-phenyl-4H-chromen-7-yl)oxy)-N’-(4-hydroxybenzylidene)acetohydrazide] |  |  | IC50 (MDA-MB-231 cells [3]): 54.8 ± 5.7 µM
COc1ccc(/C=N/NC(=O)COc2cc(O)c3c(=O)cc(-c4ccccc4)oc3c2)cc1 [Compound 4f, (E,Z)-2-((5-Hydroxy-4-oxo-2-phenyl-4H-chromen-7-yl)oxy)-N’-(4-methoxybenzylidene)acetohydrazide] |  |  | IC50 (MDA-MB-231 cells [3]): 11.9 ± 3.5 µM; times more efficacious than 4e (MDA-MB-231 cells [3]; MDA-MB-231 cytotoxic efficacy relative to 4e): ~ 5 times
O=C(COc1cc(O)c2c(=O)cc(-c3ccccc3)oc2c1)N/N=C/c1c(O)cc(O)cc1O [Compound 4j, (E,Z)-2-((5-Hydroxy-4-oxo-2-phenyl-4H-chromen-7-yl)oxy)-N’-(2,4,6-trihydroxybenzylidene)acetohydrazide] |  | totally inactive | 
O=C(COc1cc(O)c2c(=O)cc(-c3ccccc3)oc2c1)N/N=C/c1ccco1 [Compound 4k, (E,Z)-N’-(Furan-2-ylmethylene)-2-((5-hydroxy-4-oxo-2-phenyl-4H-chromen-7-yl)oxy)acetohydrazide] | 66.7 ± 11.1 µM | did not have significant cytotoxic efficacy | 
O=C(COc1cc(O)c2c(=O)cc(-c3ccccc3)oc2c1)N/N=C/c1cccnc1 [Compound 4l, (E,Z)-2-((5-Hydroxy-4-oxo-2-phenyl-4H-chromen-7-yl)oxy)-N’-(pyridin-3-ylmethylene)acetohydrazide] |  | did not have significant cytotoxic efficacy | 
O=C(COc1cc(O)c2c(=O)cc(-c3ccccc3)oc2c1)N/N=C/c1ccccn1 [Compound 4m, (E,Z)-2-((5-Hydroxy-4-oxo-2-phenyl-4H-chromen-7-yl)oxy)-N’-(pyridin-2-ylmethylene)acetohydrazide] |  | did not have significant cytotoxic efficacy | 
O=C(COc1cc(O)c2c(=O)cc(-c3ccccc3)oc2c1)N/N=C/c1c(O)ccc2ccccc12 [Compound 4n, (E,Z)-2-((5-Hydroxy-4-oxo-2-phenyl-4H-chromen-7-yl)oxy)-N’-((2-hydroxynaphthalen-1-yl)methylene)acetohydrazide] |  | inactive | 
O=C(COc1cc(O)c2c(=O)cc(-c3ccccc3)oc2c1)N/N=C/c1cc([N+](=O)[O-])ccc1O [Compound 4o] | 7.9 ± 1.82 µM |  | IC50 (HCT116): 3.85 ± 0.34 µM; IC50 (BT-20): 7.25 ± 1.82 µM; IC50 [2]: 7.17 ± 4.1 µM; IC50 (U-251): 11.3 ± 2.84 µM
COc1cccc2c1C(=O)c1c(O)c3c(c(O)c1C2=O)C[C@@](O)(C(=O)CO)C[C@@H]3O[C@H]1C[C@H](N)[C@H](O)[C@H](C)O1 [Doxorubicin, reference compound] | 0.2 ± 0.1 µM |  | 
